21 molecules from patent US5256528A, “Magenta image-dye couplers of improved hue” (Eastman Kodak Company, priority 1992, dated 1993) can be followed below.

Data set [1] is described as follows: Photographic gamma (slope of status M green density vs. exposure), C-41 process. On the procedure: (§1) Dispersions of the comparative couplers B1-B3 and B8 and of the couplers of this invention M1-M3 were prepared by dissolving the coupler in the coupler solvent S1 plus the auxiliary solvent 2-(2-butoxyethoxy)ethyl acetate and then dispersing this oil phase in an aqueous solution of gelatin and surfactant using an ultrasonic probe. The dispersions were chilled and washed for 6 hr at 4° C. to remove the auxiliary solvent. The dispersions contained approximately 8.8% coupler, 4.4% S1 and 6% gelatin by weight.
(§2) The dispersions were coated at 1.04 mmole/sq m together with a silver bromoiodide emulsion on a transparent acetate support in the format shown below. Hardened film strips were exposed through a 0-4 neutral density stepwedge and daylight V and WRATTEN 9 filters and subjected to a standard C-41 process at 37.8° C. The process consists of 2.5 min in color developer, 4 min in a ferric EDTA/PDTA bleach solution, 2 min wash, 4 min fix and 2 min final wash. Photographic gamma values were obtained from the slopes of plots of status M green density vs. exposure for processed samples. Absorption spectra of the dye-containing processed films were measured at a density near 1.0 on a spectrophotometer and the wavelengths of maximum absorption (λ max values) were recorded.
(§3) BVSM* Hardener 0.06 g/sq m
(§4) Coupler Solvent S1 1/2 coupler laydown
(§5) Dispersions of couplers B3, M1 and M5 with S1 (1:0.5) were prepared and coated as in Example 2. Film strips of these coatings were exposed, processed and analyzed as in Example 2. λmax values and gamma values associated with these film compositions are listed in Table III. This series further illustrates the use of electron-withdrawing substituents to obtain magenta dyes of the proper hue.
(§6) Dispersions of the comparative couplers B4, B5 and B8 and the couplers of this invention M6-M11 were prepared and coated as in Example 2. The coupler solvent S1 was again used at a 1:0.5 coupler:S1 weight ratio. Film strips of the hardened coatings were exposed, processed and analyzed as in Example 2. Couplers B4 and M6-M8 have a strongly electron-withdrawing alkoxycarbonyl substituent in the R2 position and couplers B5 and M9-M11 have a strongly electron-withdrawing alkylsulfonyl group at R2. […] The couplers of this invention, M6-M11, which have strong electron-withdrawing groups in each ring, yield dyes having the desired bathochromic hues, as shown by the λmax values. The gamma values obtained with the couplers of this invention are suitably high to be useful in photographic materials, as indicated by comparison to the gamma obtained from the commercial coupler B8.
(§7) Dispersions of the comparison couplers B6 and B7, and of the couplers of this invention M12-M17, were prepared using the coupler solvent Sl as in Example 2. These were coated as in Example 2, and hardened film strips were exposed, processed and analyzed as in Example 2. The results obtained are summarized in Table V. In this example all of the couplers have sulfamoyl or alkylsulfonyl substituents in the R1 position and the R2 substituent on the 3-anilino ring is varied. Comparative couplers B6 and B7 have chloro substituents at R2, whereas M12-M17 of this invention have strong electron withdrawing R2 groups. […] The gamma values of the couplers of this invention are similar to those of the comparative couplers.

Data set [2] can be described thus: Absorption spectra of dye-containing processed films (λmax), C-41 process. The class given is physicochemical. The protocol: as §1, §2, §3, §4, §5, §6, §7
[3] abbreviates: Table IV, Example 5, coupler:S1 1:0.5.
[4] abbreviates: Table I, Example 2, coupler:S1 1:0.5.
Where [5] appears, read: Table V, Example 6, coupler solvent S1.

In turn, `CCCCCCCCCCCCNS(=O)(=O)c1ccc(NC2=NN(c3c(Cl)cc(C#N)cc3Cl)C(=O)C2Sc2cc(C(C)(C)CC(C)(C)C)ccc2OCCCC)c(Cl)c1` (stereo not drawn) [Coupler M5] yielded a Gamma in data set [1] (Table III, Example 4, coupler:S1 1:0.5) of 3.8.

`CCCCCCCCCCCCOC(=O)c1ccc(NC2=NN(c3c(Cl)cc(Cl)cc3Cl)C(=O)C2Sc2cc(C(C)(C)CC(C)(C)C)ccc2OCCCC)c(Cl)c1` (stereo not drawn) [Coupler B4, reference compound] had a Gamma in data set [1] (setting [3]) of 4.1.

Regarding `CCCCCCCCCCCCOC(=O)c1ccc(NC2=NN(c3c(Cl)cc(C#N)cc3Cl)C(=O)C2Sc2cc(C(C)(C)CC(C)(C)C)ccc2OCCCC)c(Cl)c1` (stereo not drawn) [Coupler M8], in data set [2] (setting [3]), the “λmax(nm) (+-0.5)” value is listed as 548.5 nm. The molecule also had a Gamma in data set [1] (setting [3]) of 4.1.

As to `CCCCCCCCCCCCOC(=O)c1ccc(NC2=NN(c3c(Cl)cc(S(=O)(=O)N4CCOCC4)cc3Cl)C(=O)C2Sc2cc(C(C)(C)CC(C)(C)C)ccc2OCCCC)c(Cl)c1` (stereo not drawn) [Coupler M6], the “λmax(nm) (+-0.5)” value in data set [2] (setting [3]) is reported as 548.5 nm. Further, the Gamma in data set [1] (setting [3]) stood at 3.7.

On to `CCCCCCCCCCCCS(=O)(=O)c1ccc(NC2=NN(c3c(Cl)cc(Cl)cc3Cl)C(=O)C2Sc2cc(C(C)(C)CC(C)(C)C)ccc2OCCCC)c(Cl)c1` (stereo not drawn) [Coupler B5, reference compound], for which the Gamma in data set [1] (setting [3]) was 4.2.

For `CCCCCCCCCCCCNS(=O)(=O)c1ccc(NC2=NN(c3c(Cl)cc(S(=O)(=O)N4CCOCC4)cc3Cl)C(=O)C2Sc2ccccc2N(C)C(=O)CCCCCCCCCCC)c(Cl)c1` (stereo not drawn) [Coupler M2], the “λmax(nm) (+-0.5)” value in data set [2] (setting [4]) came to 551.5 nm. In data set [1] (setting [4]), this molecule came in with a Gamma of 3.9.

In the case of `CCCCCCCCCCCCS(=O)(=O)c1cc(Cl)c(N2N=C(Nc3ccc(C#N)cc3Cl)C(Sc3cc(C(C)(C)CC(C)(C)C)ccc3OCCCC)C2=O)c(Cl)c1` (stereo not drawn) [Coupler M17], the “λmax(nm) (+-0.5)” value in data set [2] (setting [5]) was 550.5 nm. Moreover, the Gamma in data set [1] (setting [5]) worked out at 3.5.

For `CCCCCCCCCCCCS(=O)(=O)c1cc(Cl)c(N2N=C(Nc3ccc(S(=O)(=O)N4CCOCC4)cc3Cl)C(Sc3cc(C(C)(C)CC(C)(C)C)ccc3OCCCC)C2=O)c(Cl)c1` (stereo not drawn) [Coupler M15], the “λmax(nm) (+-0.5)” value in data set [2] (setting [5]) is 551.0 nm. Further, in data set [1] (setting [5]), the Gamma is reported as 3.4.

Take `CCCCCCCCCCCCS(=O)(=O)c1ccc(NC2=NN(c3c(Cl)cc(S(C)(=O)=O)cc3Cl)C(=O)C2Sc2cc(C(C)(C)CC(C)(C)C)ccc2OCCCC)c(Cl)c1` (stereo not drawn) [Coupler M10]: the “λmax(nm) (+-0.5)” value in data set [2] (setting [3]) is listed as 551.0 nm. The Gamma in data set [1] (setting [3]) stood at 3.2.

For `CCCCCCCCCCCCNS(=O)(=O)c1cc(Cl)c(N2N=C(Nc3ccc(C#N)cc3Cl)C(Sc3cc(C(C)(C)CC(C)(C)C)ccc3OCCCC)C2=O)c(Cl)c1` (stereo not drawn) [Coupler M14], the “λmax(nm) (+-0.5)” value in data set [2] (setting [5]) came out at 550.5 nm. In addition, the Gamma in data set [1] (setting [5]) came out at 3.1.

`CCCCCCCCCCCCNS(=O)(=O)c1ccc(NC2=NN(c3c(Cl)cccc3Cl)C(=O)C2Sc2cc(C(C)(C)CC(C)(C)C)ccc2OCCCC)c(Cl)c1` (stereo not drawn) [Coupler B2, reference compound]: the “λmax(nm) (+-0.5)” value in data set [2] (setting [4]) worked out at 542.0 nm. This molecule showed a Gamma in data set [1] (setting [4]) of 5.3.

`CCCCCCCCCCCCS(=O)(=O)c1cc(Cl)c(N2N=C(Nc3ccc(Cl)cc3Cl)C(Sc3cc(C(C)(C)CC(C)(C)C)ccc3OCCCC)C2=O)c(Cl)c1` (stereo not drawn) [Coupler B7, reference compound]: in data set [1] (setting [5]), the Gamma worked out at 3.3.

For the molecule `CCCCCCCCCCCCOC(=O)c1ccc(NC2=NN(c3c(Cl)cc(S(C)(=O)=O)cc3Cl)C(=O)C2Sc2cc(C(C)(C)CC(C)(C)C)ccc2OCCCC)c(Cl)c1` (stereo not drawn) [Coupler M7], the “λmax(nm) (+-0.5)” value in data set [2] (setting [3]) worked out at 548.5 nm. Also, in data set [1] (setting [3]), the Gamma amounted to 3.1.

Consider `CCCCCCCCCCCCNS(=O)(=O)c1cc(Cl)c(N2N=C(Nc3ccc(Cl)cc3Cl)C(Sc3cc(C(C)(C)CC(C)(C)C)ccc3OCCCC)C2=O)c(Cl)c1` (stereo not drawn) [Coupler B6, reference compound], for which the Gamma in data set [1] (setting [5]) stood at 3.4.

Regarding `CCCCCCCCCCCCNS(=O)(=O)c1ccc(NC2=NN(c3c(Cl)cc(S(=O)(=O)N4CCOCC4)cc3Cl)C(=O)C2Sc2ccccc2N(CCCCCCCCCCCC)C(=O)C(C)(C)C)c(Cl)c1` (stereo not drawn) [Coupler M3], in data set [2] (setting [4]), the “λmax(nm) (+-0.5)” value worked out at 551.0 nm. In data set [1] (setting [4]), the Gamma turned out to be 4.4.

For the molecule `CCCCCCCCCCCCNS(=O)(=O)c1cc(Cl)c(N2N=C(Nc3ccc(S(C)(=O)=O)cc3Cl)C(Sc3cc(C(C)(C)CC(C)(C)C)ccc3OCCCC)C2=O)c(Cl)c1` (stereo not drawn) [Coupler M13], in data set [2] (setting [5]), the “λmax(nm) (+-0.5)” value is 549.5 nm. Besides, in data set [1] (setting [5]), the Gamma turned out to be 3.9.

With `CCC(C)(C)c1ccc(OCC(=O)Nc2cccc(C(=O)NC3=NN(c4c(Cl)cc(Cl)cc4Cl)C(=O)C3)c2)c(C(C)(C)CC)c1` [Coupler B8, reference compound], the “λmax(nm) (+-0.5)” value in data set [2] (setting [4]) is listed as 555.0 nm; in data set [2] (setting [3]) it was 553.0 nm. Besides, the figures for the Gamma in data set [1] (setting [4]) and in data set [1] (setting [3]) were 2.3 and 2.0, respectively.

As to `CCCCCCCCCCCCNS(=O)(=O)c1ccc(NC2=NN(c3c(Cl)cc(OC)cc3Cl)C(=O)C2Sc2cc(C(C)(C)CC(C)(C)C)ccc2OCCCC)c(Cl)c1` (stereo not drawn) [Coupler B1, reference compound], in data set [2] (setting [4]), the “λmax(nm) (+-0.5)” value worked out at 539.5 nm. Further, the Gamma in data set [1] (setting [4]) is on record as 4.8.

`CCCCCCCCCCCCNS(=O)(=O)c1cc(Cl)c(N2N=C(Nc3ccc(S(=O)(=O)N4CCOCC4)cc3Cl)C(Sc3cc(C(C)(C)CC(C)(C)C)ccc3OCCCC)C2=O)c(Cl)c1` (stereo not drawn) [Coupler M12]: in data set [2] (setting [5]), the “λmax(nm) (+-0.5)” value is listed as 549.5 nm. For the same molecule, in data set [1] (setting [5]), the Gamma is 3.1.

Regarding `CCCCCCCCCCCCS(=O)(=O)c1cc(Cl)c(N2N=C(Nc3ccc(S(C)(=O)=O)cc3Cl)C(Sc3cc(C(C)(C)CC(C)(C)C)ccc3OCCCC)C2=O)c(Cl)c1` (stereo not drawn) [Coupler M16], the “λmax(nm) (+-0.5)” value in data set [2] (setting [5]) was determined as 550.5 nm. This molecule gave a Gamma in data set [1] (setting [5]) of 3.2.

Take `CCCCCCCCCCCCS(=O)(=O)c1ccc(NC2=NN(c3c(Cl)cc(S(=O)(=O)N4CCOCC4)cc3Cl)C(=O)C2Sc2cc(C(C)(C)CC(C)(C)C)ccc2OCCCC)c(Cl)c1` (stereo not drawn) [Coupler M9]: the “λmax(nm) (+-0.5)” value in data set [2] (setting [3]) was 551.0 nm. Also, the Gamma in data set [1] (setting [3]) is 3.2.
